Data published in patent US10858305B2, “Perillyl alcohol-3-bromopyruvate conjugate and methods of treating cancer” (NeOnc Technologies, Inc., priority 2016, dated 2020).
“Also recorded” adds a separate entry of the source. Where two headings read alike, the source gives them in different places.

Experiments:
[1] = tested on: MDA-MB-231 breast cancer cells; assay: LDH release assay in MDA-MB-231 / breast cancer cell lines; assay type: cell-based, human
Experimental: (§1) (A) MTT assay was performed after 24 hours. […] (B) LDH assay was performed after […]. LDH release by untreated cells was set to 1. Relative fold increase is shown (n=3).
(A) MTT assay was performed after 24 hours. Viability of untreated cells was set at 100% (data points are averages of 2 experiments). (B) LDH assay was performed after 24 hours. LDH release by untreated cells was set to 1. Relative fold increase is shown (averages from 2 experiments). (C) Representative photos show typical colony formation after initial 48 hours of drug treatment. In all cases of combination treatment with 3-BP mixed with […] (3-BP+POH), the indicated concentrations refer to each individual drugs, i.e., 100 μM 3-BP+POH means that 100 μM 3-BP was combined with 100 μM POH.
(§2) The capacity for rapid cell killing by NEO218 relative to 3-BP, POH and 3-BP+POH was evaluated via LDH assay, where LDH release is used as a proxy for cell death.
(§3) In FIG. 4, Panels (a) and (b), show the results of treating breast cancer cell lines with increasing concentrations of NEO218, 3-BP, or 3-BP mixed with POH. […] In all cases a-d, the release of LDH (as a marker of cell death) was measured after 24 hours.
(§4) Depending on the cell line, 2000 to 4000 cells per well were seeded in a volume of 50 μL into a 96-well plate. The next day, drugs ere added in an additional 50 μL of medium. At different time points (usually after 24 hours of incubation), 50 μL medium was removed and processed with the LDH Cytotoxicity Assay Kit (Thermo Fisher Scientific, Waltham, Mass.) according to the manufacturer's instructions. This kit measures extracellular LDH in culture medium using an enzymatic reaction that results in a red formazan product, which can be measured spectrophotometrically. The absorbance was measured at 490 and 680 nm. All LDH levels were normalized to untreated controls and presented as fold change of the controls.

[2] = tested on: HCT116 colon cancer cells; assay: LDH release assay in HCT116 cells; assay type: cell-based; settings: Homo sapiens, HCT-116; HCT116, 16 hours; read-out: half-maximal effect, LDH assay
Experimental: as §1, §2, §3, §4

[3] = tested on: all cell types (breast, brain, ovary, colon cancer cell lines); assay: Summary of cytotoxicity over MTT, LDH and colony formation assays (FIGS. 2-5); assay type: cell-based, human; settings: for IC50: Homo sapiens
Excerpt: The tumor cell-killing potency of NEO218 was characterized by in vitro, short-term MTT assays (measuring viability of cells via determination of metabolic activity), LDH assays (measuring the release of lactate dehydrogenase as an indicator of leaky cell membranes, which are indicative of dying cells), and colony-formation assays (CFA, which determine long-term survival of drug-treated cells and their ability to spawn a colony of descendants). Several established cell lines derived from cancers of the breast were used as target cells (including MDA-MB-231; MDA-MB-468; T47D; MCF7; MCF7/Dox; BTB12), brain (T98G; U251), ovary (A2780), and colon (HCT116). In all cases, cells in culture were exposed to increasing concentrations of agents for 24 or 48 hours.

[4] = tested on: HCT116 colon cancer cells; assay: Cellular ATP content assay; assay type: cell-based, human; settings: HCT116; 3 hours (FIG. 9) or 3 and 6 hours at 40 μM (FIG. 22)
Experimental: HCT116 cells were treated with 40 μM 3-BP or NEO218. As a point of reference, cells were also exposed to 100 nM rotenone in glucose-free medium. ATP levels were determined after 3 and 6 hours. ATP levels in untreated cells were set at 100% (corresponding to 26.6 nmol per one million cells).
HCT116 colon cancer cells were treated cells with: NEO218, 3-BP; rotenone (a mitochondrial poison that blocks the respiratory chain); medium without glucose (“no gluc”; in order to shut down glycolysis); and, rotenone in combination with absent glucose (to cease all intracellular ATP production). After 3 hours of treatment, a commercially available ATP detection assay kit was employed to determine the relative levels of ATP present.
ATP content of cells was measured with the ATP Colorimetric/Fluorometric Assay kit (Biovision Inc., Milpitas, Calif.), which utilizes the phosphorylation of glycerol to generate a product that is quantified by colorimetry at 570 nm. Approximately 1×10^6 cells were cultured in 10-cm tissue culture plates, exposed to drug treatment for various time periods, and then processed as per manufacturer's instructions. All ATP levels were normalized to untreated controls and presented as percentage of controls.

HCT116 cells = assay: Colony formation assay in HCT116 cells; assay type: cell-based, human; settings: for IC50: Homo sapiens, HCT-116, HCT116, 48 hours drug then 10-14 days, read-out: half-maximal effect, CFA
Experimental: as §1
Depending on the cell line (and plating efficiency), 250-800 cells were seeded into each well of a 6-well plate and treated as described in detail previously. After 12-16 days, colonies (defined as groups of >50 cells) were visualized by staining for 4 hours with 1% methylene blue (in methanol), and then were-counted. Experiments were repeated at least once, but usually more often under different conditions.

[5] = tested on: HCT116 cells transfected with MCT-1 siRNA or scrambled control; assay: MTT assay in HCT116 cells after siRNA knockdown of MCT-1; assay type: cell-based; settings: Homo sapiens
Experimental: HCT116 cells were transfected with siRNA targeted at MCT-1 (circles), or with a scrambled control (diamonds). (A) Cellular sensitivity to 3-BP and NEO218 was determined by MTT assay. Dotted lines and arrow show the shift in IC50. Note pronounced shift to the right in 3-BP-treated cells (left, panel), compared to a minor shift to the left in NEO218-treated cells (right panel). (B) Knockdown of MCT-1 protein levels was confirmed by Western blot analysis with actin as the loading control. (C) MCT-1 knockdown was also confirmed at the individual cell level by immunocytochemistry. The two photos were similarly overexposed in order to emphasize the pronounced difference in MCT-1 levels.
Methylthiazoletetrazolium (MTT) assays were performed as described earlier.
All siRNAs were purchased from Qiagen, Valencia, Calif. To knock down MCT1 expression, we used siRNA Hs_SLC16A1_6 (target sequence: 5′-[…]-3′). As a non-silencing control, we used AllStars Negative Control siRNA, which lacks homology to any known mammalian gene. One hundred thousand cells per well of a 6-well plate were transfected with 50 nM siRNA using jetPRIME transfection reagent and buffer (Polyplus Transfection, New York, N.Y.). Medium was changed after 24 hours and cells were subjected to experiments 72 hours after transfection. 2.10. Immunoblots

[6] = all cell types, FIGS. 2-5, read-out: IC50 (ability of a drug to reduce cell survival by 50%)

SMILES	earliest detection of cytotoxic effects (LDH release) after onset of drug treatment ([1]; MDA-MB-231, time course)	time at which half-maximal extent of cell death is reached ([1]; MDA-MB-231, time course of LDH release)	EC50 [2]	IC50 [3, 6]	killing of drug-resistant cells ([3]; T98G (TMZ-resistant) and MCF7/Dox (multi-drug-resistant) cells)	depletion of cellular ATP pools [4]	IC50 (HCT116 cells)	IC50 ([5]; HCT-116, HCT116, MCT-1 siRNA knockdown, read-out: IC50 (MTT))	IC50 ([5]; HCT-116, HCT116, scrambled control siRNA, read-out: IC50 (MTT))	EC50 ([1]; Homo sapiens, MDA-MB-231, 16 hours, read-out: effective concentration (half-maximal), LDH assay)	IC50 ([3]; cell types in which 3-BP is not similarly potent, read-out: concentrations required for cell death in less sensitive cell types)	block of colony formation in CFA (HCT116 cells; HCT116, 40 μM)	IC50 ([5]; HCT-116, read-out: IC50 (MTT), HCT116, MCT-1 siRNA knockdown)	IC50 ([5]; HCT-116, read-out: IC50 (MTT), HCT116, scrambled control siRNA)
C=C(C)[C@@H]1CC=C(COC(=O)C(=O)CBr)CC1 [NEO218, 3-bromo-2-oxo-propionic acid 4-isopropenyl-cyclohex-1-enylmethyl ester]	1 h	< 8 h	~8 µM	5 to 30 µM	effectively killed	nearly identical outcomes; also recorded: potently depletes the levels of cellular ATP pools	~3 µM	15 µM	19 µM	–	–	–	–	–
O=C(O)C(=O)CBr [3-BP, 3-bromopyruvate]	–	–	~8 µM	10 to 200 µM	–	nearly identical outcomes; also recorded: potently depletes the levels of cellular ATP pools	~3 µM	–	–	~350 µM	> 200 µM	99%	67 µM	20 µM
